Experimental data as given in PubChem BioAssay (NCI).
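Five compound concentrations were applied to cells in 96-well plates for 48 hours; endpoints were derived by simple linear interpolation of the resulting dose-response curve. GI50 = concentration required for 50% inhibition of growth. TGI: total growth inhibition.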

How the values were obtained:
Experiment in all cases: inhibition of tumour cell growth, NCI panel, 48 h
A549 NSCLC = test system: A549 NSCLC
ACHN renal = test system: ACHN renal
CAKI-1 renal = test system: CAKI-1 renal
CCRF-CEM leukemia = test system: CCRF-CEM leukemia
COLO 205 colon = test system: COLO 205 colon
DU-145 prostate = test system: DU-145 prostate
EKVX NSCLC = test system: EKVX NSCLC
HCC-2998 colon = test system: HCC-2998 colon
HCT-116 colon = test system: HCT-116 colon
HCT-15 colon = test system: HCT-15 colon
HL-60(TB) leukemia = test system: HL-60(TB) leukemia
HOP-62 NSCLC = test system: HOP-62 NSCLC
HOP-92 NSCLC = test system: HOP-92 NSCLC
HS 578T breast = test system: HS 578T breast
HT29 colon = test system: HT29 colon
IGROV1 ovarian = test system: IGROV1 ovarian
K-562 leukemia = test system: K-562 leukemia
KM12 colon = test system: KM12 colon
LOX IMVI melanoma = test system: LOX IMVI melanoma
MALME-3M melanoma = test system: MALME-3M melanoma
MCF7 breast = test system: MCF7 breast
MDA-MB-231 breast = test system: MDA-MB-231 breast
MDA-MB-435 = test system: MDA-MB-435
MOLT-4 leukemia = test system: MOLT-4 leukemia
NCI-H226 lung = test system: NCI-H226 lung
NCI-H23 lung = test system: NCI-H23 lung
NCI-H460 lung = test system: NCI-H460 lung
NCI-H522 lung = test system: NCI-H522 lung
NCI/ADR-RES ovarian = test system: NCI/ADR-RES ovarian
OVCAR-3 ovarian = test system: OVCAR-3 ovarian
OVCAR-5 ovarian = test system: OVCAR-5 ovarian
OVCAR-8 ovarian = test system: OVCAR-8 ovarian
RPMI-8226 leukemia = test system: RPMI-8226 leukemia
SF-268 CNS = test system: SF-268 CNS
SF-295 CNS = test system: SF-295 CNS
SF-539 CNS = test system: SF-539 CNS
SK-MEL-2 melanoma = test system: SK-MEL-2 melanoma
SK-MEL-28 melanoma = test system: SK-MEL-28 melanoma
SK-MEL-5 melanoma = test system: SK-MEL-5 melanoma
SK-OV-3 ovarian = test system: SK-OV-3 ovarian
SNB-75 CNS = test system: SNB-75 CNS
SR leukemia = test system: SR leukemia
SW-620 colon = test system: SW-620 colon
TK-10 renal = test system: TK-10 renal
UACC-257 melanoma = test system: UACC-257 melanoma
UO-31 renal = test system: UO-31 renal
M14 melanoma = test system: M14 melanoma
786-0 renal = test system: 786-0 renal
A498 renal = test system: A498 renal
SNB-19 CNS = test system: SNB-19 CNS

## CCCCCCCCCOc1c(OC)cc(C2CC(=O)Nc3c2c(C)nn3-c2nc3ccccc3[nH]2)cc1OC (stereo not given)
A549 NSCLC
  GI50: 1080 nM
  TGI: 2350 nM
ACHN renal
  GI50: 1130 nM
  TGI: 2790 nM
CAKI-1 renal
  GI50: 917 nM
  TGI: 1810 nM
CCRF-CEM leukemia
  GI50: 1720 nM
  TGI: > 50000 nM
COLO 205 colon
  GI50: 1730 nM
  TGI: > 50000 nM
DU-145 prostate
  GI50: 1790 nM
  TGI: > 50000 nM
EKVX NSCLC
  GI50: 981 nM
  TGI: 2320 nM
HCC-2998 colon
  GI50: 1620 nM
  TGI: > 50000 nM
HCT-116 colon
  GI50: 1780 nM
  TGI: > 50000 nM
HCT-15 colon
  GI50: 1050 nM
  TGI: 2460 nM
HL-60(TB) leukemia
  GI50: 1580 nM
  TGI: 4450 nM
HOP-62 NSCLC
  GI50: 974 nM
  TGI: 2110 nM
HOP-92 NSCLC
  GI50: 955 nM
  TGI: 2460 nM
HS 578T breast
  GI50: 622 nM
  TGI: 1970 nM
HT29 colon
  GI50: 1640 nM
  TGI: > 50000 nM
IGROV1 ovarian
  GI50: 890 nM
  TGI: 1770 nM
K-562 leukemia
  GI50: 1810 nM
  TGI: > 50000 nM
KM12 colon
  GI50: 1170 nM
  TGI: 3080 nM
LOX IMVI melanoma
  GI50: 913 nM
  TGI: 1670 nM
MALME-3M melanoma
  GI50: 914 nM
  TGI: 1920 nM
MCF7 breast
  GI50: 1590 nM
  TGI: > 50000 nM
MDA-MB-231 breast
  GI50: 975 nM
  TGI: 1870 nM
MDA-MB-435
  GI50: 982 nM
  TGI: 1990 nM
MOLT-4 leukemia
  GI50: 1340 nM
  TGI: 3250 nM
NCI-H226 lung
  GI50: 939 nM
  TGI: 1840 nM
NCI-H23 lung
  GI50: 904 nM
  TGI: 1830 nM
NCI-H460 lung
  GI50: 928 nM
  TGI: 1800 nM
NCI-H522 lung
  GI50: 1010 nM
  TGI: 2400 nM
NCI/ADR-RES ovarian
  GI50: 1310 nM
  TGI: 3740 nM
OVCAR-3 ovarian
  GI50: 1180 nM
  TGI: 2890 nM
OVCAR-5 ovarian
  GI50: 881 nM
  TGI: 1860 nM
OVCAR-8 ovarian
  GI50: 1710 nM
  TGI: 7280 nM
RPMI-8226 leukemia
  GI50: 1460 nM
  TGI: 4290 nM
SF-268 CNS
  GI50: 1040 nM
  TGI: 2570 nM
SF-295 CNS
  GI50: 816 nM
  TGI: 1740 nM
SF-539 CNS
  GI50: 851 nM
  TGI: 1650 nM
SK-MEL-2 melanoma
  GI50: 1410 nM
  TGI: 4310 nM
SK-MEL-28 melanoma
  GI50: 897 nM
  TGI: 1810 nM
SK-MEL-5 melanoma
  GI50: 871 nM
  TGI: 1560 nM
SK-OV-3 ovarian
  GI50: 1060 nM
  TGI: 2090 nM
SNB-75 CNS
  GI50: 670 nM
  TGI: 1550 nM
SR leukemia
  GI50: 1570 nM
  TGI: 6510 nM
SW-620 colon
  GI50: 1000 nM
  TGI: 2170 nM
TK-10 renal
  GI50: 1270 nM
  TGI: 3830 nM
UACC-257 melanoma
  GI50: 1470 nM
  TGI: > 50000 nM
UO-31 renal
  GI50: 679 nM
  TGI: 1320 nM

## COc1ccc2nc3cc(Cl)ccc3c(N)c2c1
HCT-15 colon
  GI50: 713 nM
  TGI: 2970 nM
HS 578T breast
  GI50: 2860 nM
  TGI: > 100000 nM
M14 melanoma
  GI50: 1940 nM
  TGI: 3710 nM
OVCAR-5 ovarian
  GI50: 2090 nM
  TGI: 3660 nM
SK-MEL-28 melanoma
  GI50: 2010 nM
  TGI: 3510 nM
SR leukemia
  GI50: 236 nM
  TGI: 591 nM
UACC-257 melanoma
  GI50: 1930 nM
  TGI: 3480 nM

## Cc1n(Cc2ccc3ccccc3c2)c2ccccc2[n+]1Cc1ccc2ccccc2c1
786-0 renal
  GI50: 1750 nM
  TGI: 3320 nM
A498 renal
  GI50: 1350 nM
  TGI: 2880 nM
A549 NSCLC
  GI50: 1760 nM
  TGI: 3400 nM
ACHN renal
  GI50: 2460 nM
  TGI: 6490 nM
DU-145 prostate
  GI50: 1630 nM
  TGI: 3040 nM
HOP-92 NSCLC
  GI50: 31.7 nM
  TGI: 2060 nM
MDA-MB-231 breast
  GI50: 1330 nM
  TGI: 2710 nM
NCI/ADR-RES ovarian
  GI50: 19200 nM
  TGI: 87600 nM
OVCAR-5 ovarian
  GI50: 1420 nM
  TGI: 2820 nM
RPMI-8226 leukemia
  GI50: 29.1 nM
  TGI: 1480 nM
SF-539 CNS
  GI50: 1530 nM
  TGI: 2910 nM
SK-MEL-28 melanoma
  GI50: 1540 nM
  TGI: 3180 nM
SK-OV-3 ovarian
  GI50: 1650 nM
  TGI: 3110 nM
SNB-19 CNS
  GI50: 1350 nM
  TGI: 2770 nM
TK-10 renal
  GI50: 1550 nM
  TGI: 3030 nM
UACC-257 melanoma
  GI50: 1240 nM
  TGI: 2790 nM
UO-31 renal
  GI50: 1500 nM
  TGI: 2870 nM
